Values belong to the compound of their own block, whether it stands above or below them.
Assays:
[1] = test system: HEPM cells with a Gli-Luc construct; experiment: Gli-Luc reporter in human embryonic palatal mesenchyme (HEPM) cells; type: cell-based
Source text: FIGS. 47A and B compare the activity of subject compounds O and R in mouse reporter cells (TM3 cells with a Gli-Luc reporter construct, as described above) and in human reporter cells (human embryonic palatal mesenchyme (HEPM) cells with a Gli-Luc construct).

[2] = test system: hedgehog-responsive Gli-Luc reporter-construct; experiment: Gli-Luc hedgehog pathway reporter assay in [10T1/2(s12)] cells; type: cell-based, murine; settings: Table 1
Protocol: To measure the hedgehog agonist activity of compounds, we used [10T1/2(s12)] cells containing the hedgehog-responsive Gli-Luc reporter-construct. In each MTP (MicroTiter Plate; 96-well plate), 10,000-20,000 cells were plated per well, in full media (10% FBS). After about 24-48 hr, plates were switched to low-serum media (=0.5%. FBS). Subsequently, a test compound was added at 1-5 μM in the presence or absence of octyl-hedgehog (see below). After another 24 hr, the media from the MTPs was discarded and replaced with luciferase assay-mix, containing lysis-buffer with luciferase substrate. The plates were incubated at RT for about 15-30 min and read in a luminometer.
Plates were incubated for 48 hr before switching to low-serum. Compounds were screened at 1-2 μM in the presence of Hh protein (0.01 μg/ml; EC30=about 30% of max-induced activity).
Plates were incubated for 24 hr before switching to low-serum. Compounds were screened at 5 μM without adding Hh protein.
From Screen A, we identified hits identified in FIGS. 32 and 33. The 1,4-diaminocyclohexane subunit of the compounds of FIG. 32 which include this moiety have the two amino substituents disposed in a trans-relationship, e.g., both substituents equatorial on the cyclohexane subunit. These hits were confirmed in Screen B. The data shown in FIGS. 34a and 34b essentially involved dosing the two compounds in both assays (Gli-Luc & SV-Luc).
The data from the Gli-Luc assay is converted to percent activity where full activity with Hh protein is set at 100% (FIG. 35; Table 1). […] Furthermore, the compounds show a more striking induction in the presence of hedgehog (EC50=0.2-0.3 μM, ECmax=70-90% of max induced activity with Hh protein), indicating a synergy between the compounds and Hh protein, consistent with the compounds serving as agonists for the hedgehog pathway.

Ptc-1 = experiment: Quantitative RT-PCR (TaqMan) of Ptc-1 transcript in C3H 10T1/2 cells; type: cell-based, Murine; settings: compound concentration 8 μM
Protocol: (§1) The compounds of FIGS. 32 and 33 were tested for their ability to activate transcription of two well-studied targets of the Hedgehog pathway: the transcription factor Gli-1, and the putative Hedgehog receptor component Ptc-1.
(§2) Murine C3H 10T1/2 cells were seeded at approximately 200,000 cells per well in a 24-well plate in complete medium (10% FBS). After 24 hr, medium was removed and replaced with “starvation” medium (0.5% FBS) containing dilutions of compound or Hh protein. After 16-18 hr, total RNA was prepared using TriZol (Life Technologies, inc.).
(§3) One-microgram aliquots of total RNA were used to prepare random hexamer-primed cDNA with […] Reverse transcriptase (Life Technologies, Inc.).
(§4) To measure the relative levels of Gli-1 and Ptc-1 transcripts, TaqMan assays (PE Biosystems) were performed with an ABI Prism 7700 Sequence Detection System. As an internal control, GAPDH transcript levels were simultaneously measured in each reaction. Data were analyzed using Sequence Detector v 1.6.3 (Perkin Elmer).

Gli-1 = experiment: Quantitative RT-PCR (TaqMan) of Gli-1 transcript in C3H 10T1/2 cells; type: cell-based, Murine; settings: compound concentration 8 μM
Protocol: as §1, §2, §3, §4

[3] = test system: cerebellar neuron precursors; experiment: Cerebellar neuron precursor proliferation (3H-thymidine incorporation); type: cell-based, rat; settings: for stimulation of 3H-thymidine incorporation: absence of Hh protein treatment
Protocol: In order to test the efficacy of Hedgehog signaling agonists, the ability of the agonists to stimulate the proliferation of cerebellar neuron precursors was determined. Cerebellar granule neuron precursors are known to respond to Hh protein by proliferating. To test the agonists, cerebellar neurons were dissected out of postnatal (one week) rat brains, and placed into primary cell culture. Treatment agents were added once, on the first day of culture (0 DIV). Cells were left in culture until 2 DIV, when 3H-thymidine was added for 5 hours; the amount of incorporation by the cells of this 3H-thymidine provides a measure of the level of proliferation of the cells. Cells were then lysed, and the incorporation of 3H-thymidine was determined. The positive control was Hh protein, at 1.0 μg/ml final concentration. Hh protein alone caused approximately a 20-fold increase in 3H-thymidine incorporation, consistent with the known ability of Shh to stimulate proliferation of these cells. Non-Hh-protein-stimulated cells, including cells treated with control vehicle (DMSO), had very low levels of proliferation. […] At 5.0 μM, the p-cyanophenyl compound B caused 10.2-fold induction of 3H-thymidine incorporation. […] At 1.0, 0.3, or 0.1 μM, D caused 16-, 17-, or 13-fold induction, respectively, of 3H thymidine incorporation into the cells.

[4] = test system: ptc-1 (d11) lacZ kidney explants; experiment: Kidney branching assay (ptc-1 lacZ kidney explants); type: cell-based, mouse; settings: 5 μM, 48 hrs
Protocol: (§5) E13.5 old ptc-1 (d11) lacZ […] were harvested and transgenic embryos identified by lacZ detection using tails. Explants were assembled on 1 μm polycarbonate filters (Costar) placed on top of plastic grids (histology embedding chamber) and placed in standard 12-well tissue culture plates filled with kidney explant culture medium (DMEM based, additives optimized for the culture of mouse […]) for 48 hrs, fixed in lacZ fixative, rinsed and stained for lacZ O/N at 37° C.

[5] = test system: patched (ptc-lacZ β-galactosidase reporter); experiment: Ptc-lacZ reporter mice assay (X-gal staining of tissues); type: in vivo; settings: agonist 15 mg/kg/injection 4X/day + dipal-Shh 1 mg/kg/injection 2X/day, four days from first day after birth
Protocol: Mice with a β-galactosidase transgene (ptc-lacZ mice) under the regulatory control of the patched locus express the β-galactosidase protein in the same cells where the endogenous mouse patched gene is expressed. The β-galactosidase protein can thus be used as a faithful reporter of the expression of the endogenous patched gene.
Ptc-lacZ mice were divided into four treatment groups and were treated with the following compounds or combinations of compounds for four days, beginning on the first day after birth (dipal-Shh=dipalmitoylated Sonic hedgehog):
The vehicle for the agonist was 10% DMSO in PBS (pH 7.2). The agonist was injected from a 4.67 mM stock dissolved in the vehicle solution.
18 hours following the last injections, the mice were sacrificed and the following tissues were collected: skull, kidney, lung, scapula, skin and heart. All tissues were fixed in 0.2% glutaraldehyde, 5 mM EDTA (pH 8.0), 20 mM MgCl2, 100 mM Na2HPO4 for 30 minutes before staining in 1 mg/ml X-gal, 12.5 mM potassium ferrocyanide, 12.5 mM potassium ferricyanide, 2 mM MgCl2, 0.01% deoxycholate, 0.02% NP-40, and 100 mM Na2HPO4 for 30 hours. Tissues were judged for relative intensity and photographed.
FIG. 42: Ptc-lacZ mice were divided into two treatment groups and were treated with the following compounds for three days, beginning on the first day after birth:
The vehicle for the agonist was 10% DMSO in PBS (pH 7.2). The agonist was injected from a 1.0 mM stock dissolved in the vehicle solution.
Eighteen hours following the last injections, the mice were sacrificed and the forelimbs were collected and processed as described above.
In a third experiment, Ptc-lacZ mice were divided into five treatment groups and were treated with the following compounds for four days, beginning on the first day after birth:
The vehicle for the agonist was 10% DMSO in PBS (pH 7.2). The agonist was injected from stocks of 0.3, 0.1 and 0.03 mM dissolved in the vehicle solution.

ptc-1 (d11) lacZ lungs = experiment: Lung branching assay (ptc-1 lacZ lung explants); type: cell-based, mouse; settings: 5 μM, 48 hrs
Protocol: as §5, with “E12.5” for “E13.5”, “lung” for “kidney”

ptc-lacZ skin punches = experiment: Skin explants from ptc-lacZ pups (X-Gal stain); type: cell-based, mouse; settings: cultured 6 days
Protocol: Skin from ptc-lacZ E17.5 pups was excised with a 2 mm skin punch. Those skin punches were then cultured for 6 days in control media, or media including either agonist B or D or Hh protein, or media including both an agonist and Hh protein. The explants were then stained with X-Gal stain.

Compound: COc1ccc(CN(C(=O)c2sc3ccccc3c2Cl)C2CCC(N)CC2)cc1-c1cccc([N+](=O)[O-])c1 (stereo not shown) [A]
induction of Ptc-1 relative to that obtained with the optimal concentration of Hh protein (Ptc-1): ~40%
induction of Gli-1 relative to that obtained with the optimal concentration of Hh protein (Gli-1): ~40%
stimulation of 3H-thymidine incorporation [3]: significantly stimulate 3H-thymidine incorporation

Compound: COc1ccc(CN(C(=O)c2sc3ccccc3c2Cl)C2CCC(N)CC2)cc1-c1ccc(C#N)cc1 (stereo not shown) [B]
induction of Ptc-1 relative to that obtained with the optimal concentration of Hh protein (Ptc-1): approximately 60%
LacZ reporter gene expression in kidney explants [4]: significantly increased reporter gene expression and expansion of the expression domain of the transgene
upregulation of hedgehog pathway (β-galactosidase staining) [5]: clearly capable of upregulating the hedgehog pathway in vivo
EC50 [2]: < 10 µM
induction of Gli-1 relative to that obtained with the optimal concentration of Hh protein (Gli-1): approximately 60%
LacZ reporter gene expression in lung explants (ptc-1 (d11) lacZ lungs): significantly increased reporter gene expression and expansion of the expression domain of the transgene
X-Gal staining of skin explants (ptc-lacZ skin punches; agonist alone): greater staining than culturing with a low dose of Hh protein alone
X-Gal staining of skin explants (ptc-lacZ skin punches; agonist and a low dose of Hh protein): staining similar to that of a substantially higher dose of Hh protein
induction of 3H-thymidine incorporation ([3]; 5.0 μM, absence of Hh protein): 10.2 fold
stimulation of 3H-thymidine incorporation [3]: significantly stimulate 3H-thymidine incorporation

Compound: NC1CCC(N(Cc2cc(-c3ccc(F)cc3)cs2)C(=O)c2sc3ccccc3c2Cl)CC1 (stereo not shown) [J]
EC50 [2]: < 1 µM

Compound: CN[C@H]1CC[C@H](N(Cc2ccc(OC)c(-c3ccc(C#N)cc3)c2)C(=O)c2sc3cc(F)ccc3c2Cl)CC1 [J′]
EC50 [2]: < 1 µM

Compound: CN[C@H]1CC[C@H](N(Cc2cncc(-c3ccc(S(N)(=O)=O)s3)c2)C(=O)c2sc3ccccc3c2Cl)CC1 [K′′′]
EC50 [2]: < 5 µM

Compound: COc1ccc(CN(C(=O)c2sc3ccccc3c2Cl)[C@H]2CC[C@H](N)CC2)cc1-c1cccnc1 [D′]
EC50 [2]: < 10 µM

Compound: COc1ccc(CN(C(=O)c2sc3ccccc3c2C)C2CCC(N)CC2)cc1-c1ccc(C#N)cc1 (stereo not shown) [Compound E]
EC50 [2]: < 10 µM

Second part, led by results:

EC50 [2]: < 1 µM
Compound: CNC1CCC(N(Cc2ccc(-c3cccnc3)o2)C(=O)c2sc3ccccc3c2Cl)CC1 (stereo not shown) [R]
activation of Gli-Luc reporter cell line [1]: activation of the reporter cell line

EC50 [2]: < 1 µM
Compound: CN[C@H]1CC[C@H](N(Cc2cc(Cl)nc(Cl)c2)C(=O)c2sc3ccccc3c2Cl)CC1 [T′′′]

EC50 [2]: < 10 µM
Compound: CN[C@H]1CC[C@H](N(Cc2cccc(C#N)c2)C(=O)c2sc3ccccc3c2Cl)CC1 [Z′]

EC50 [2]: < 0.5 µM
Compound: CN[C@H]1CC[C@H](N(Cc2ccnc(-c3ccc(C#N)cc3)c2)C(=O)c2sc3ccccc3c2Cl)CC1 [M′′′]

EC50 [2]: < 10 µM
Compound: CN[C@H]1CC[C@H](N(Cc2cccc(N3CCOCC3)c2)C(=O)c2sc3ccccc3c2Cl)CC1 [W′]

EC50 [2]: < 5 µM
Compound: CN[C@H]1CC[C@H](N(Cc2ccnc(-c3ccc(S(N)(=O)=O)s3)c2)C(=O)c2sc3ccccc3c2Cl)CC1 [N′′′]

Source: patent publication US8129425B2, “Small organic molecule regulators of cell proliferation” (Curis, Inc., priority 2000, dated 2012)
